Patent EP4700025A1, “AMIDE COMPOUND, PHARMACEUTICAL COMPOSITION COMPRISING SAME, AND USE THEREOF” (Suzhou Genhouse Bio Co., Ltd., priority 2023, dated 2024)
Blank lines part the entries; values can stand above or below the compound they belong to.

Tests used:
SDMA [1] = assay: SDMA Inhibition Assay in HCT-116-MTAP^-/- cells; format: cell-based; settings: Homo sapiens, 96 hours
Experimental: (§1) The next day, the cells were treated with the compounds at different concentrations (with an initial concentration of 10 µM, 5-fold dilution, 9 concentration gradients). After 96 hours, the culture medium was pipetted out and the cells were washed 2 times with 100 µL of PBS. The cells were then fixed with 4% paraformaldehyde and incubated at room temperature for 20 min. The fixative solution was discarded, and the cells were washed with PBS. 150 µL of specialized blocking solution (containing 1% Triton-100) was added to each well for blocking at room temperature for 2 hours, and the plate was washed with PBS to remove excess blocking solution. […] The cells were incubated at 4 °C overnight. The next day, the cells were separately washed 2 times with 1× PBST. […] The cells were incubated at room temperature for 2 hours. The cells were washed 2 times with 1× PBST and 1 time with PBS. Fluorescence signals at 700 nm and 800 nm were separately detected using a Li-COR Odyssey two-color near-infrared laser imager. The inhibition rates were calculated, and the EC50 values were determined by fitting using the GraphPad Prism 7.0 software. Table 3. Inhibition of SDMA by test compounds

SDMA [2] = assay: SDMA Inhibition Assay in HCT-116 cells; format: cell-based; settings: Homo sapiens, HCT-116, 96 hours
Experimental: as §1

SDMA [3] = assay: SDMA Inhibition Assay in A549 cells; format: cell-based; settings: Homo sapiens, A549, 96 hours
Experimental: as §1

HCT-116 = assay: CCK8 proliferation inhibition, HCT-116; format: cell-based; settings: Homo sapiens, 192 h, CCK8, 8 days after drug treatment
Experimental: (§2) The above normally growing cells were digested with a cell trypsinization solution, centrifuged, counted, and seeded into a 96-well plate at an appropriate cell density (2000 cells/well) at 100 µL/well. The next day after cell seeding, the compounds at different concentrations were added to the wells. Three replicate wells were set for each concentration point, and a corresponding DMSO negative control group was also set. CCK8 solution was added to each well 8 days after drug treatment. The plate was incubated at 37 °C for a period of time (OD450 of the vehicle group reached 1.0 or higher) before the absorbance at 450 nm was read using a microplate reader. The inhibition rates were calculated, and the EC50 values were determined by fitting using the GraphPad Prism 7.0 software. Table 2. EC50 values of compounds at cellular level

HCT-116-MTAP^-/- = assay: CCK8 proliferation inhibition, HCT-116-MTAP^-/-; format: cell-based; settings: Homo sapiens, 192 h; HCT-116-MTAP^-/- (MTAP-deficient); CCK8, 8 days after drug treatment
Experimental: as §2

[4] = Pharmacokinetic assay in mice; format: in vivo, Balb/c mice; settings: mouse; for MRT inf: read-out: MRT(0-∞)
Experimental: Eighteen male Balb/c mice aged 6 to 8 weeks were randomly divided into 2 groups (IV group and PO group). The corresponding compounds were administered to the animals in the IV group by tail intravenous injection at 2 mg/kg, and the corresponding compounds were administered to the animals in the PO group by oral gavage at 10 mg/kg or 100 mg/kg. The animals in the IV group were allowed free access to food and water, and the animals in the PO group were fasted overnight before administration and were fed 4 h after administration. Throughout the experiment, the animals were allowed free access to water. Plasma samples were separately collected at 0.083 h (only group IV), 0.25 h, 0.5 h, 1 h, 2 h, 4 h, 8 h, and 24 h after administration. About 100 µL of blood was collected from the orbit of the animal, placed into a 1.5 mL anticoagulation centrifuge tube, and centrifuged at 8000 rpm and 4 °C for 10 min. The upper plasma sample was transferred to an EP tube. The plasma samples were stored in a refrigerator at -80 °C until sample analysis. Pharmacokinetic parameters of the drug were calculated based on the drug concentration-time data, including the peak concentration Cmax, peak time Tmax, clearance rate CL, steady state apparent volume of distribution Vss, area under drug-time curve AUC, elimination half-life t1/2, bioavailability, and the like. Data below the 80% lower limit of quantification were excluded from the calculation of pharmacokinetic parameters.

A549 = assay: CCK8 proliferation inhibition, A549; format: cell-based; settings: Homo sapiens, 192 h, CCK8, 8 days after drug treatment
Experimental: as §2

[5] = Pharmacokinetic assay in rats; format: in vivo, SD rats; settings: rat; for MRT inf: read-out: MRT(0-∞)
Experimental: In this experimental example, the pharmacokinetic behavior of the test compounds after administration by intravenous injection (IV) and oral gavage (PO) in SD rats was tested.
On the day of administration, rats were weighed for actual body weight, and the administration volume was calculated. Each compound was tested in two groups with 3 rats in each group; one group was subjected to administration by single intravenous injection, and the other group was subjected to administration by single oral gavage. The whole blood samples were collected via the jugular vein at prescribed time points (0.25 h, 0.5 h, 1 h, 2 h, 4 h, 8 h, and 24 h after administration). After the blood sample collection, the samples were immediately transferred to labeled commercial sample tubes containing K2-EDTA (0.85-1.15 mg), followed by centrifugation (3200× g, 4 °C, 10 min) and plasma collection. The plasma was transferred to a pre-cooled centrifuge tube, frozen in dry ice, and then stored in an ultra-low temperature freezer at -60 °C or lower until the LC-MS/MS analysis was performed.
Plasma concentrations were determined by the LC-MS/MS method. Plasma drug concentration data for the compounds were processed using a non-compartmental model in the WinNonlin Version 6.3 (Pharsight, Mountain View, CA) pharmacokinetic software. The relevant pharmacokinetic parameters were calculated by a linear-log trapezoidal method.

[6] = male, Balb/c, plasma, 2 mg/kg, IV 2mpk
[7] = male, Balb/c, plasma, 10 mg/kg, PO 10mpk

SMILES: Cn1ncc2c(N)nc3cc(F)c(C(=O)N4CCOCC4c4ccc5c(c4)OC(F)(F)O5)cc3c21 (stereo not shown) [Example I-3]
EC50 (SDMA [1]): 0.6 nM
EC50 (SDMA [2]): 101 nM
EC50 (SDMA [3]): 2.1 nM
EC50 (HCT-116): 2370 nM
EC50 (HCT-116-MTAP^-/-): 8.4 nM

SMILES: CC1OCc2c1c(N)nc1cc(F)c(C(=O)N(Cc3ccc4c(c3)OC(F)(F)O4)C3CC3)cc21 (racemic) [Example I-36]
EC50 (HCT-116): > 10000 nM
EC50 (HCT-116-MTAP^-/-): 24.2 nM

SMILES: Nc1nc2cnc(C(=O)N3CCOC[C@@H]3c3ccc4c(c3)OC(F)(F)O4)cc2c2c1COC2 [Example I-109]
EC50 (SDMA [1]): 15 nM
EC50 (SDMA [2]): 938 nM
EC50 (SDMA [3]): 2.8 nM
EC50 (HCT-116): 4850 nM
EC50 (HCT-116-MTAP^-/-): 19.2 nM
AUC(0-t) ([4]; plasma, 2 mg/kg, IV 2mpk): 13.4 µM·h
AUC(0-t) ([4]; plasma, 10 mg/kg, PO 10mpk): 44.1 µM·h
Cmax ([4]; plasma, 10 mg/kg, PO 10mpk): 14700 nM

SMILES: Cn1cnc(CN(Cc2ccc3c(c2)OC(F)(F)O3)C(=O)c2cc3c(cc2F)nc(N)c2cnn(C)c23)n1 [Example I-41]
EC50 (SDMA [1]): 0.7 nM
EC50 (A549): 16.8 nM
EC50 (SDMA [3]): 1.1 nM
EC50 (HCT-116-MTAP^-/-): 1.6 nM

SMILES: Cn1ncc2c(N)nc3ccc(C(=O)N(Cc4ccc5c(c4)OC(F)(F)O5)C4CC4)cc3c21 [Example I-15]
EC50 (SDMA [1]): 10.3 nM
EC50 (SDMA [2]): 628 nM
EC50 (SDMA [3]): 7.6 nM
EC50 (HCT-116): 5760 nM
EC50 (HCT-116-MTAP^-/-): 34 nM

SMILES: CN(Cc1ccc2c(c1)OC(F)(F)O2)C(=O)c1ccc2nc(N)c3cnn(C)c3c2c1 [Example I-2]
EC50 (SDMA [1]): 8.3 nM
AUC(0-inf) ([5]; SD, plasma, 2 mg/kg, IV 2mpk): 6.91 µM·h
AUC(0-t) ([5]; SD, plasma, 2 mg/kg, IV 2mpk): 6.42 µM·h
C0 ([5]; SD, plasma, 2 mg/kg, IV 2mpk): 2340 nM
MRT inf ([5]; SD, plasma, 2 mg/kg, IV 2mpk): 4.3 h
Vd ([5]; SD, plasma, 2 mg/kg, IV 2mpk, read-out: Vz): 3.4 L/kg
AUC(0-inf) ([5]; SD, plasma, 10 mg/kg, PO 10mpk): 17.2 µM·h
AUC(0-t) ([5]; SD, plasma, 10 mg/kg, PO 10mpk): 14.8 µM·h
Cmax ([5]; SD, plasma, 10 mg/kg, PO 10mpk): 1680 nM
Tmax ([5]; SD, plasma, 10 mg/kg, PO 10mpk): 2.3 h
MRT inf ([5]; SD, plasma, 10 mg/kg, PO 10mpk): 7.2 h
CLz ([5]; IV 2mpk): 13 mL/min/kg
R_AUC(t/∞) ([5]; IV 2mpk): 91.6%
t1/2z ([5]; IV 2mpk): 3.5 h
R_AUC(t/∞) ([5]; PO 10mpk): 86.6%
t1/2z ([5]; PO 10mpk): 4.7 h
F ([5]; PO 10mpk (IV reference 2mpk; 0.2mpk for I-7)): 49.9%
EC50 (SDMA [2]): 1010 nM
EC50 (SDMA [3]): 5.1 nM
EC50 (HCT-116): 6740 nM
EC50 (HCT-116-MTAP^-/-): 42.6 nM
AUC(0-inf) [4, 6]: 4.11 µM·h
AUC(0-t) [4, 6]: 3.53 µM·h
C0 [4, 6]: 1520 nM
MRT inf [4, 6]: 4 h
Vd ([4]; male, Balb/c, plasma, 2 mg/kg, IV 2mpk, read-out: Vz): 4.7 L/kg
AUC(0-inf) [4, 7]: 18.8 µM·h
AUC(0-t) [4, 7]: 18.1 µM·h
Cmax [4, 7]: 2190 nM
Tmax [4, 7]: 1 h
MRT inf [4, 7]: 7.1 h
CLz ([4]; IV 2mpk): 18.3 mL/min/kg
R_AUC(t/∞) ([4]; IV 2mpk): 85.8%
t1/2z ([4]; IV 2mpk): 2.8 h
R_AUC(t/∞) ([4]; PO 10mpk): 96.3%
t1/2z ([4]; PO 10mpk): 5.5 h
F ([4]; PO 10mpk vs IV 2mpk): 91.5%

Other lines, results leading:

EC50 (SDMA [1]): 8.7 nM
EC50 (SDMA [2]): 1120 nM
EC50 (SDMA [3]): 6.7 nM
EC50 (HCT-116): 2710 nM
EC50 (HCT-116-MTAP^-/-): 35.8 nM
SMILES: CN1CCN(CCN(Cc2ccc3c(c2)OC(F)(F)O3)C(=O)c2cc3c(cc2F)nc(N)c2cnn(C)c23)CC1 [Example I-31]

EC50 (SDMA [1]): 3.1 nM
EC50 (SDMA [2]): 1020 nM
EC50 (SDMA [3]): 3.1 nM
EC50 (HCT-116): 3440 nM
EC50 (HCT-116-MTAP^-/-): 18.3 nM
SMILES: CN(Cc1ccc2c(cnn2C)c1)C(=O)c1cc2c(cc1F)nc(N)c1cnn(C)c12 [Example I-18]

EC50 (SDMA [1]): 9.1 nM
EC50 (SDMA [2]): 906 nM
EC50 (SDMA [3]): 6.1 nM
EC50 (HCT-116): 6410 nM
EC50 (HCT-116-MTAP^-/-): 47.7 nM
SMILES: Cn1ncc2c(N)nc3ccc(C(=O)N4CCOCC4c4ccc5c(c4)OC(F)(F)O5)cc3c21 (single isomer, unassigned) [I-4 (PEAK1)]

EC50 (SDMA [1]): 36 nM
EC50 (SDMA [2]): > 1000 nM
EC50 (SDMA [3]): 19 nM
SMILES: Cn1ncc2c(N)nc3cnc(C(=O)N4CC5(CC5)OCC4c4ccc5c(c4)OC(F)(F)O5)cc3c21 (stereo not shown) [Example I-110]
